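All cell lines were grown in 96-well plates and treated with compound for 48 hours. Here, GI50 denotes the concentration required for 50% inhibition of growth.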 Activity calls are given as the source filed them. Rule as the data show it: active = GI50 up to about 1.1 µM and inactive = higher.
How the values were obtained:
Assay in all cases: NCI anticancer screen, dose series, 48 h
CCRF-CEM = system: CCRF-CEM
SF-539 = system: SF-539
NCI-H460 = system: NCI-H460
Hs-578T = system: Hs-578T
RXF 393 = system: RXF 393
MDA-N = system: MDA-N
786-0 = system: 786-0
HCT-15 = system: HCT-15
OVCAR-4 = system: OVCAR-4
NCI-H23 = system: NCI-H23
SNB-19 = system: SNB-19
A549 = system: A549
MDA-MB-231 = system: MDA-MB-231
OVCAR-3 = system: OVCAR-3
SF-295 = system: SF-295
UACC-62 = system: UACC-62
SNB-75 = system: SNB-75
HCC 2998 = system: HCC 2998
SR = system: SR
RPMI-8226 = system: RPMI-8226

N#Cc1c(NC(=O)C(F)(F)F)sc2c3c(=O)c4ccccc4c(=O)c=3oc3ccccc3c12
GI50 (CCRF-CEM): 4.24 µM (inactive) | GI50 (SF-539): 7.24 µM (inactive) | GI50 (NCI-H460): 17.6 µM (inactive) | GI50 (Hs-578T): 2.49 µM (inactive) | GI50 (RXF 393): 10 µM (inactive) | GI50 (MDA-N): 18.3 µM (inactive) | GI50 (786-0): 25.6 µM (inactive) | GI50 (HCT-15): 13.1 µM | GI50 (OVCAR-4): 14.7 µM (inactive) | GI50 (NCI-H23): 9.84 µM (inactive) | GI50 (SNB-19): 20.3 µM (inactive) | GI50 (A549): 19 µM (inactive) | GI50 (MDA-MB-231): 24.3 µM (inactive) | GI50 (OVCAR-3): 10.8 µM (inactive) | GI50 (SF-295): 11.7 µM (inactive) | GI50 (UACC-62): 7.55 µM (inactive) | GI50 (SNB-75): 16.8 µM (inactive) | GI50 (HCC 2998): 13.9 µM (inactive) | GI50 (SR): 3.28 µM (inactive) | GI50 (RPMI-8226): 12.7 µM (inactive)

Cc1ccc(C(=O)/C=C2/Nc3ccccc3NC2=O)c(C)c1
GI50 (CCRF-CEM): 62.5 µM (inactive) | GI50 (SF-539): 5.04 µM (inactive) | GI50 (NCI-H460): 13.2 µM (inactive) | GI50 (Hs-578T): 16.2 µM (inactive) | GI50 (RXF 393): 7.52 µM (inactive) | GI50 (MDA-N): 17.5 µM (inactive) | GI50 (786-0): 4.19 µM (inactive) | GI50 (HCT-15): 64.3 µM | GI50 (OVCAR-4): 2.7 µM (inactive) | GI50 (NCI-H23): 16.1 µM (inactive) | GI50 (SNB-19): 9.71 µM (inactive) | GI50 (A549): 13.7 µM (inactive) | GI50 (MDA-MB-231): 14.3 µM (inactive) | GI50 (OVCAR-3): 32 µM (inactive) | GI50 (SF-295): 9.46 µM (inactive) | GI50 (UACC-62): 5.37 µM (inactive) | GI50 (SNB-75): 6.32 µM (inactive) | GI50 (HCC 2998): 29.4 µM (inactive) | GI50 (SR): 29.4 µM (inactive) | GI50 (RPMI-8226): 25.2 µM (inactive)

CCOC(=O)C1C(=O)CC(O)(c2ccccc2)C(C(=O)OCC)C1c1ccc(OC)cc1 (stereo not given)
GI50 (CCRF-CEM): 18.2 µM (inactive) | GI50 (SF-539): 15.6 µM (inactive) | GI50 (NCI-H460): 18.2 µM (inactive) | GI50 (Hs-578T): 0.695 µM (active) | GI50 (RXF 393): 13.6 µM (inactive) | GI50 (MDA-N): 3.18 µM (inactive) | GI50 (786-0): 22.6 µM (inactive) | GI50 (HCT-15): 19.4 µM | GI50 (OVCAR-4): 28.6 µM (inactive) | GI50 (NCI-H23): 31 µM (inactive) | GI50 (SNB-19): 22.5 µM (inactive) | GI50 (A549): 47 µM (inactive) | GI50 (MDA-MB-231): 22.2 µM (inactive) | GI50 (OVCAR-3): 12.4 µM (inactive) | GI50 (SF-295): 3.24 µM (inactive) | GI50 (UACC-62): 21.9 µM (inactive) | GI50 (SNB-75): 0.479 µM (active) | GI50 (HCC 2998): 37.9 µM (inactive) | GI50 (SR): 4.23 µM (inactive) | GI50 (RPMI-8226): 13.8 µM (inactive)

Sc1nc(S)nc(Oc2ccc(Cl)c(Cl)c2)n1
GI50 (CCRF-CEM): 23.2 µM (inactive) | GI50 (SF-539): > 44.8 µM (inactive) | GI50 (NCI-H460): 25.5 µM (inactive) | GI50 (Hs-578T): 89.1 µM (inactive) | GI50 (RXF 393): < 0.01 µM (active) | GI50 (MDA-N): 77.1 µM (inactive) | GI50 (786-0): > 61.2 µM (inactive) | GI50 (HCT-15): 43.5 µM | GI50 (OVCAR-4): 41.1 µM (inactive) | GI50 (NCI-H23): 27.2 µM (inactive) | GI50 (SNB-19): > 65.2 µM (inactive) | GI50 (A549): 22.4 µM (inactive) | GI50 (MDA-MB-231): 39.4 µM (inactive) | GI50 (OVCAR-3): 29.6 µM (inactive) | GI50 (SF-295): 59 µM (inactive) | GI50 (UACC-62): 31.3 µM (inactive) | GI50 (SNB-75): 30.3 µM (inactive) | GI50 (HCC 2998): 17.8 µM (inactive) | GI50 (SR): 30.1 µM (inactive) | GI50 (RPMI-8226): 9.95 µM (inactive)

COc1ccc(-c2cc(O)c3cc(OC)c(OC)cc3n2)cc1OC
GI50 (CCRF-CEM): > 100 µM (inactive) | GI50 (SF-539): > 100 µM (inactive) | GI50 (NCI-H460): > 100 µM (inactive) | GI50 (Hs-578T): 69.8 µM (inactive) | GI50 (RXF 393): 67.3 µM (inactive) | GI50 (MDA-N): > 100 µM (inactive) | GI50 (786-0): > 100 µM (inactive) | GI50 (HCT-15): > 100 µM | GI50 (OVCAR-4): > 100 µM (inactive) | GI50 (NCI-H23): > 100 µM (inactive) | GI50 (SNB-19): > 100 µM (inactive) | GI50 (A549): > 100 µM (inactive) | GI50 (MDA-MB-231): > 100 µM (inactive) | GI50 (OVCAR-3): > 100 µM (inactive) | GI50 (SF-295): > 100 µM (inactive) | GI50 (UACC-62): > 100 µM (inactive) | GI50 (SNB-75): 37.2 µM (inactive) | GI50 (HCC 2998): > 100 µM (inactive) | GI50 (SR): > 100 µM (inactive) | GI50 (RPMI-8226): > 100 µM (inactive)

CC(C)(C)OC(=O)CN1CCN(CC(=O)N2CCN(C(=O)OCc3ccccc3)CC2)CCN(CC(=O)OC(C)(C)C)CCN(CC(=O)N2CCN(C(=O)OCc3ccccc3)CC2)CC1
GI50 (CCRF-CEM): 1.41 µM (inactive) | GI50 (SF-539): 2.17 µM (inactive) | GI50 (NCI-H460): 1.35 µM (inactive) | GI50 (Hs-578T): 1.79 µM (inactive) | GI50 (RXF 393): 3.61 µM (inactive) | GI50 (MDA-N): 2.18 µM (inactive) | GI50 (786-0): 2.21 µM (inactive) | GI50 (HCT-15): 6.15 µM | GI50 (OVCAR-4): 2.73 µM (inactive) | GI50 (NCI-H23): 2.6 µM (inactive) | GI50 (SNB-19): 3.48 µM (inactive) | GI50 (A549): 3.27 µM (inactive) | GI50 (MDA-MB-231): 1.64 µM (inactive) | GI50 (OVCAR-3): 2.83 µM (inactive) | GI50 (SF-295): 3.35 µM (inactive) | GI50 (UACC-62): 2.67 µM (inactive) | GI50 (SNB-75): 1.35 µM (inactive) | GI50 (HCC 2998): 1.69 µM (inactive) | GI50 (SR): 0.407 µM (active) | GI50 (RPMI-8226): 0.942 µM (active)

Reference: ChEMBL document CHEMBL1201862, “PubChem BioAssay data set” (2004)
